This note sets out measurements from patent US20130244999A1, “Substituted Heterocyclic Compounds” (Incyte Corporation, priority 2008, published 2013).

Usually inhibition stands for the relative decrease from the control value, in per cent. A low value points to little suppression. One may read the IC50 as the midpoint of a concentration-inhibition curve.

One assay deals with T1, histamine H4 receptor (Homo sapiens, UniProt Q9H3N8).
T1 construct: expressed in transfected cells; host or cells: HEK293SFM cells (membrane preparation)
T1 sequence (Q9H3N8 whole entry): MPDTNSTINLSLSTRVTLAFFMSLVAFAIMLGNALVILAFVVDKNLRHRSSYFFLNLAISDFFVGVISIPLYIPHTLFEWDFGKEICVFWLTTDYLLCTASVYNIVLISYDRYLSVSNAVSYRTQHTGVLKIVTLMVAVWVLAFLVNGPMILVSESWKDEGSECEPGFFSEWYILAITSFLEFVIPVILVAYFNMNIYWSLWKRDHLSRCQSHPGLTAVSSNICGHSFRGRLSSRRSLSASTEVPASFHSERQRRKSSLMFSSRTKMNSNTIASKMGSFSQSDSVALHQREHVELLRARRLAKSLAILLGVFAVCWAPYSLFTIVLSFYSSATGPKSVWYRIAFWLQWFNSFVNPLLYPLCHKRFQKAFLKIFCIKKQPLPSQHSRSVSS
The assay is described as follows: Inhibition of histamine H4 receptor (Table A1; H4 membrane binding assay).
Conditions: not given
Summed up:
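Membranes came from recombinant HEK293SFM cells expressing human H4, homogenized in 50 mM Tris-HCl pH 7.5 with protease inhibitors. Nonspecific binding was set with 1000× unlabeled ligand. Bound radioligand was separated on PEI-treated GF/B filters and counted by liquid scintillation.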
In the case of `CC1Cc2ccc(-c3cnn(CC4(C#N)CC4)c3)cc2CN1c1cc(N2CCN(C)CC2)nc(N)n1` (single isomer, unassigned) [Example 97B, 1-[(4-{2-[2-amino-6-(4-methylpiperazin-1-yl)pyrimidin-4-yl]-3-methyl-1,2,3,4-tetrahydroisoquinolin-7-yl}-1H-pyrazol-1-yl)methyl]cyclopropanecarbonitrile], at 1 µM the inhibition was 72%.

Staying with this assay, now noted: histamine H4 receptor; "> a" = exceeds experiment limit.
The compound `CC1Cc2ccc(-c3cc(C(=O)N4CCC4)n(C)c3)cc2CN1c1cc(N2CCN(C)CC2)nc(N)n1` (single isomer, unassigned) [Example 92B, 4-[7-[5-(azetidin-1-ylcarbonyl)-1-methyl-1H-pyrrol-3-yl]-3-methyl-3,4-dihydroisoquinolin-2(1H)-yl]-6-(4-methylpiperazin-1-yl)pyrimidin-2-amine] showed an IC50 of 127 nM.

As for `CC1Cc2ccc(-c3cc(C(=O)N(C)CCN(C)C)n(C)c3)cc2CN1c1cc(N2CCN(C)CC2)nc(N)n1` (single isomer, unassigned) [Example 93, 4-{2-[2-Amino-6-(4-methylpiperazin-1-yl)pyrimidin-4-yl]-3-methyl-1,2,3,4-tetrahydroisoquinolin-7-yl}-N-[2-(dimethylamino)ethyl]-N,1-dimethyl-1H-pyrrole-2-carboxamide], the IC50 was determined as 24 nM.

Compound `CC1Cc2ccc(-c3cc(C(=O)N4CCC(N(C)C)C4)n(C)c3)cc2CN1c1cc(N2CCN(C)CC2)nc(N)n1` (single isomer, unassigned) [Example 94, 4-[7-(5-{[3-(Dimethylamino)pyrrolidin-1-yl]carbonyl}-1-methyl-1H-pyrrol-3-yl)-3-methyl-3,4-dihydroisoquinolin-2(1H)-yl]-6-(4-methylpiperazin-1-yl)pyrimidin-2-amine] returned an IC50 of 30 nM.

On to `CC1Cc2ccc(-c3cnn(C4CCOCC4)c3)cc2CN1c1cc(N2CCN(C)CC2)nc(N)n1` (single isomer, unassigned) [Example 95A, 4-(4-methylpiperazin-1-yl)-6-[3-methyl-7-[1-(tetrahydro-2H-pyran-4-yl)-1H-pyrazol-4-yl]-3,4-dihydroisoquinolin-2(1H)-yl]pyrimidin-2-amine], for which the IC50 came to 35 nM.

Compound `CC1Cc2ccc(-c3cnn(CCC#N)c3)cc2CN1c1cc(N2CCN(C)CC2)nc(N)n1` (single isomer, unassigned) [Example 96A, 3-(4-{2-[2-amino-6-(4-methylpiperazin-1-yl)pyrimidin-4-yl]-3-methyl-1,2,3,4-tetrahydroisoquinolin-7-yl}-1H-pyrazol-1-yl)propanenitrile] came in with an IC50 of 26 nM.

As for `CC1Cc2ccc(-c3cnn(CCC#N)c3)cc2CN1c1cc(N2CCN(C)CC2)nc(N)n1` (single isomer, unassigned) [Example 96B, 3-(4-{2-[2-Amino-6-(4-methylpiperazin-1-yl)pyrimidin-4-yl]-3-methyl-1,2,3,4-tetrahydroisoquinolin-7-yl}-1H-pyrazol-1-yl)propanenitrile], the IC50 is 352 nM.

Compound `CC1Cc2ccc(-c3cnn(CC4(C#N)CC4)c3)cc2CN1c1cc(N2CCN(C)CC2)nc(N)n1` (single isomer, unassigned) [Example 97A, 1-[(4-{2-[2-amino-6-(4-methylpiperazin-1-yl)pyrimidin-4-yl]-3-methyl-1,2,3,4-tetrahydroisoquinolin-7-yl}-1H-pyrazol-1-yl)methyl]cyclopropanecarbonitrile] showed an IC50 of 44 nM.

In the case of `CC1Cc2ccc(-c3cnn(C4CCS(=O)(=O)C4)c3)cc2CN1c1cc(N2CCN(C)CC2)nc(N)n1` (single isomer, unassigned) [Example 98A, 4-[7-[1-(1,1-dioxidotetrahydro-3-thienyl)-1H-pyrazol-4-yl]-3-methyl-3,4-dihydroisoquinolin-2(1H)-yl]-6-(4-methylpiperazin-1-yl)pyrimidin-2-amine], the IC50 was determined as 24 nM.

Compound `CC1Cc2ccc(-c3cnn(CC4CCCO4)c3)cc2CN1c1cc(N2CCN(C)CC2)nc(N)n1` (single isomer, unassigned) [Example 99A, 4-(4-Methylpiperazin-1-yl)-6-[3-methyl-7-[1-(tetrahydrofuran-2-ylmethyl)-1H-pyrazol-4-yl]-3,4-dihydroisoquinolin-2(1H)-yl]pyrimidin-2-amine] showed an IC50 of 83 nM.

In the case of `CC1Cc2ccc(-c3cnn(CC4CCCO4)c3)cc2CN1c1cc(N2CCN(C)CC2)nc(N)n1` (single isomer, unassigned) [Example 99B, 4-(4-Methylpiperazin-1-yl)-6-[3-methyl-7-[1-(tetrahydrofuran-2-ylmethyl)-1H-pyrazol-4-yl]-3,4-dihydroisoquinolin-2(1H)-yl]pyrimidin-2-amine], the IC50 worked out at 172 nM.

`CC1Cc2ccc(-c3cnn(CCF)c3)cc2CN1c1cc(N2CCN(C)CC2)nc(N)n1` (single isomer, unassigned) [Example 100, 4-[7-[1-(2-fluoroethyl)-1H-pyrazol-4-yl]-3-methyl-3,4-dihydroisoquinolin-2(1H)-yl]-6-(4-methylpiperazin-1-yl)pyrimidin-2-amine] had an IC50 of 20 nM.

For the compound `CC(C#N)Cn1cc(-c2ccc3c(c2)CN(c2cc(N4CCN(C)CC4)nc(N)n2)C(C)C3)cn1` (single isomer, unassigned) [Example 101, 3-(4-{2-[2-Amino-6-(4-methylpiperazin-1-yl)pyrimidin-4-yl]-3-methyl-1,2,3,4-tetrahydroisoquinolin-7-yl}-1H-pyrazol-1-yl)-2-methylpropanenitrile], the IC50 was found to be 34 nM.

For `CC1Cc2ccc(-c3cnn(CC4CC4)c3)cc2CN1c1cc(N2CCN(C)CC2)nc(N)n1` (single isomer, unassigned) [Example 102, 4-[7-[1-(Cyclopropylmethyl)-1H-pyrazol-4-yl]-3-methyl-3,4-dihydroisoquinolin-2(1H)-yl]-6-(4-methylpiperazin-1-yl)pyrimidin-2-amine], the IC50 was determined as 42 nM.

`CC1Cc2ccc(-c3cnn(C(C)CC#N)c3)cc2CN1c1cc(N2CCN(C)CC2)nc(N)n1` (single isomer, unassigned) [Example 103, 3-(4-{2-[2-Amino-6-(4-methylpiperazin-1-yl)pyrimidin-4-yl]-3-methyl-1,2,3,4-tetrahydroisoquinolin-7-yl}-1H-pyrazol-1-yl)butanenitrile] had an IC50 of 24 nM.

`CC1Cc2ccc(-c3cnn(CCN4CCOCC4)c3)cc2CN1c1cc(N2CCN(C)CC2)nc(N)n1` (single isomer, unassigned) [Example 104, 4-[3-Methyl-7-[1-(2-morpholin-4-ylethyl)-1H-pyrazol-4-yl]-3,4-dihydroisoquinolin-2(1H)-yl]-6-(4-methylpiperazin-1-yl)pyrimidin-2-amine] had an IC50 of 45 nM.

As for `CC1Cc2ccc(-c3cnn(C(C)C)c3)cc2CN1c1cc(N2CCN(C)CC2)nc(N)n1` (single isomer, unassigned) [Example 105, 4-[7-(1-Isopropyl-1H-pyrazol-4-yl)-3-methyl-3,4-dihydroisoquinolin-2(1H)-yl]-6-(4-methylpiperazin-1-yl)pyrimidin-2-amine], the IC50 worked out at 53 nM.

`CC1Cc2ccc(-c3cnn(CC4CCC4)c3)cc2CN1c1cc(N2CCN(C)CC2)nc(N)n1` (single isomer, unassigned) [Example 106, 4-[7-[1-(cyclobutylmethyl)-1H-pyrazol-4-yl]-3-methyl-3,4-dihydroisoquinolin-2(1H)-yl]-6-(4-methylpiperazin-1-yl)pyrimidin-2-amine] registered an IC50 of 63 nM.

`CCn1cc(-c2ccc3c(c2)CN(c2cc(N4CCN(C)CC4)nc(N)n2)C(C)C3)cn1` (single isomer, unassigned) [Example 107, 4-[7-(1-Ethyl-1H-pyrazol-4-yl)-3-methyl-3,4-dihydroisoquinolin-2(1H)-yl]-6-(4-methylpiperazin-1-yl)pyrimidin-2-amine] registered an IC50 of 42 nM.

For the compound `CC1Cc2ccc(-c3cnn(C4CCOC4)c3)cc2CN1c1cc(N2CCN(C)CC2)nc(N)n1` (single isomer, unassigned) [Example 108, 4-(4-Methylpiperazin-1-yl)-6-[3-methyl-7-[1-(tetrahydrofuran-3-yl)-1H-pyrazol-4-yl]-3,4-dihydroisoquinolin-2(1H)-yl]pyrimidin-2-amine], the IC50 is 46 nM.

Take `CC1Cc2ccc(-c3cnn(CC4CCCC4)c3)cc2CN1c1cc(N2CCN(C)CC2)nc(N)n1` (single isomer, unassigned) [Example 109, 4-[7-[1-(Cyclopentylmethyl)-1H-pyrazol-4-yl]-3-methyl-3,4-dihydroisoquinolin-2(1H)-yl]-6-(4-methylpiperazin-1-yl)pyrimidin-2-amine]: the IC50 is 100 nM.

`CC1Cc2ccc(-c3cnn(CCO)c3)cc2CN1c1cc(N2CCN(C)CC2)nc(N)n1` (single isomer, unassigned) [Example 110, 2-(4-{2-[2-Amino-6-(4-methylpiperazin-1-yl)pyrimidin-4-yl]-3-methyl-1,2,3,4-tetrahydroisoquinolin-7-yl}-1H-pyrazol-1-yl)ethanol] came in with an IC50 of 35 nM.

The compound `CC1Cc2ccc(-c3cnn(C4CCN(CCO)CC4)c3)cc2CN1c1cc(N2CCN(C)CC2)nc(N)n1` (single isomer, unassigned) [Example 111, 2-[4-(4-{2-[2-Amino-6-(4-methylpiperazin-1-yl)pyrimidin-4-yl]-3-methyl-1,2,3,4-tetrahydroisoquinolin-7-yl}-1H-pyrazol-1-yl)piperidin-1-yl]ethanol] had an IC50 of 22 nM.

`COCCn1cc(-c2ccc3c(c2)CN(c2cc(N4CCN(C)CC4)nc(N)n2)C(C)C3)cn1` (single isomer, unassigned) [Example 112, 4-[7-[1-(2-Methoxyethyl)-1H-pyrazol-4-yl]-3-methyl-3,4-dihydroisoquinolin-2(1H)-yl]-6-(4-methylpiperazin-1-yl)pyrimidin-2-amine] came in with an IC50 of 40 nM.

The compound `CC1Cc2ccc(-c3cnn(CC(N)=O)c3)cc2CN1c1cc(N2CCN(C)CC2)nc(N)n1` (single isomer, unassigned) [Example 113, 2-(4-{2-[2-Amino-6-(4-methylpiperazin-1-yl)pyrimidin-4-yl]-3-methyl-1,2,3,4-tetrahydroisoquinolin-7-yl}-1H-pyrazol-1-yl)acetamide] had an IC50 of 72 nM.
